# Test results taken from the SangsterLogP compilation.
row,logP,Compound
1,5.06,O=C1c2c(O)cccc2C(=CNc2ccc(Cl)cc2)c2cccc(O)c21
2,4.74,O=C1c2c(O)cccc2C(=CNc2ccc3c(c2)OCO3)c2cccc(O)c21
3,5.07,CN(C=C1c2cccc(O)c2C(=O)c2c(O)cccc21)c1ccccc1
4,4.23,O=C1c2c(O)cccc2C(=CNCc2ccccc2)c2cccc(O)c21
5,4.37,COc1ccc(NC=C2c3cccc(O)c3C(=O)c3c(O)cccc32)cc1OC
6,4.7,O=C1c2c(O)cccc2C(=CNc2ccc([N+](=O)[O-])cc2)c2cccc(O)c21

# The next lines start with the molecule.
row,Compound,logP
1,O=C1c2c(O)cccc2C(=CNc2ccc(O)cc2)c2cccc(O)c21,4.01
2,COc1ccccc1NC=C1c2cccc(O)c2C(=O)c2c(O)cccc21,4.37
3,O=C1c2c(O)cccc2C(=CNc2ccccc2)c2cccc(O)c21,4.96
4,O=C1c2c(O)cccc2C(=CNc2ccc(F)cc2)c2cccc(O)c21,4.64
5,COc1ccc(NC=C2c3cccc(O)c3C(=O)c3c(O)cccc32)cc1,4.9
6,CNC=C1c2cccc(O)c2C(=O)c2c(O)cccc21,3.55
7,O=C1c2c(O)cccc2C(=CNc2ccc(Br)cc2)c2cccc(O)c21,5.19
